We go through 4 compounds from patent publication US20090069384A1, “THIENOPYRROLES USEFUL IN THE TREATMENT OF INFLAMMATION” (BIOLIPOX AB, priority 2005, published 2009).

In general, IC50 refers to the concentration that gives 50% inhibition. Low values mean greater potency in that assay, high ones weaker potency in that assay.

The test has as its target T1, mPGES-1 (Homo sapiens, UniProt O14684).
T1 construct: made in house; host or cells: E. coli (membrane fraction)
T1 sequence (O14684 1-152): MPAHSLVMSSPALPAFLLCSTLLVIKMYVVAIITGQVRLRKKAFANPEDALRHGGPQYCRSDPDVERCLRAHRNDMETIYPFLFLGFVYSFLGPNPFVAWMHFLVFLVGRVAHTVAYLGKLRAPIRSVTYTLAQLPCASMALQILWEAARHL
The test is described as follows: mPGES-1 inhibition assay (conversion of PGH2 to PGE2, HPLC analysis). The test is classed as biochemical. The following applies: mPGES-1 expressed in E. coli, membrane fraction; room temperature; PGH2 substrate, 60 seconds. On the procedure: In the assay mPGES-1 catalyses the reaction where the substrate PGH2 is converted to PGE2. mPGES-1 is expressed in E. coli and the membrane fraction is dissolved in 20 mM NaPi-buffer pH 8.0 and stored at −80° C. […] The stop solution consists of H2O/MeCN (7/3), containing FeCl2 (25 mM) and HCl (0.15 M). The assay is performed at room temperature in 96-well plates.
The following is added chronologically to each well: • 1. 100 uL mPGES-1 in KPi-buffer with glutathione. Total protein concentration: 0.02 mg/mL. • 2. 1 μL inhibitor in DMSO. Incubation of the plate at room temperature for 25 minutes. • 3. 4 μL of a 0.25 mM PGH2 solution. Incubation of the plate at room temperature for 60 seconds. • 4. 100 μL stop solution. • 180 μL per sample is analyzed with HPLC.
Compound `CC(C)Oc1ccc(-c2cc3cc(C(=O)O)n(Cc4cccc(Cl)c4)c3s2)cc1` [Example 35, 6-(3-Chlorobenzyl)-2-(4-isopropoxyphenyl)-6H-thieno[2,3-b]pyrrole-5-carboxylic Acid] showed an IC50 of 4.7 µM. For `CC(C)(C)c1ccc(-c2cc3c(s2)c(-c2ccc(C(C)(C)C)cc2)c(C(=O)O)n3Cc2cccc(Cl)c2)cc1` [Example 2, 2,6-Bis-(4-tert-butylphenyl)-4-(3-chlorobenzyl)thieno[3,2-b]pyrrole-5-carboxylic Acid] the value was 0.39 µM; for `Cc1ccc(-n2c(C(=O)O)cc3sc(-c4ccc(OC(C)C)cc4)cc32)cc1[N+](=O)[O-]` [Example 28, 2-(4-Isopropoxyphenyl)-4-(4-methyl-3-nitrophenyl)thieno[3,2-b]pyrrole-5-carboxylic Acid], 5.1 µM. For `Cc1ccc(-c2cc3c(s2)c(I)c(C(=O)O)n3Cc2cccc(Cl)c2)s1` [Example 4, 4-(3-Chlorobenzyl)-6-iodo-2-(5-methylthien-2-yl)thieno[3,2-b]pyrrole-5-carboxylic Acid], half-maximal inhibition (IC50) was put at 1.3 µM.
